The source made the active and inactive calls. The rule behind the calls is not given here.
Key:
[1] = tested on: MGC-803; assay: Induction of apoptosis in human MGC803 cells assessed as condensed chromatin at 5 uM after 12 to 48 hrs by Hoechst 33258 staining; type: functional, cell-based
[2] = tested on: MGC-803; assay: Induction of apoptosis in human MGC803 cells assessed as early apoptotic cells at 5 uM after 24 hrs by acridine orange/ethidium bromide staining; type: functional, cell-based
[3] = tested on: MGC-803; assay: Induction of apoptosis in human MGC803 cells assessed as cell budding at 5 uM at 24 hrs by acridine orange/ethidium bromide staining
[4] = tested on: MGC-803; assay: Induction of apoptosis in human MGC803 cells assessed as membrane blebbing at 5 uM after 12 to 48 hrs by acridine orange/ethidium bromide staining; type: functional, cell-based
[5] = tested on: Bcap37; assay: Antiproliferative activity against human Bcap37 cells after 72 hrs by MTT assay; type: functional, cell-based; settings: Bcap37, 72 h
[6] = tested on: MGC-803; assay: Induction of apoptosis in human MGC803 cells assessed as early and late apoptotic level at 10 uM after 24 hrs by annexinV/FITC-PI staining-based flow cytometric analysis; type: functional
[7] = tested on: MGC-803; assay: Induction of apoptosis in human MGC803 cells assessed as early and late apoptotic level at 10 uM after 36 hrs by annexinV/FITC-PI staining-based flow cytometric analysis; type: functional
[8] = tested on: MGC-803; assay: Growth inhibition of human MGC803 cells at 10 uM after 72 hrs by MTT assay; type: functional; settings: MGC-803, 72 h, read-out: GI
[9] = tested on: MGC-803; assay: Antiproliferative activity against human MGC803 cells after 72 hrs by MTT assay; type: functional, cell-based; settings: MGC-803, 72 h
[10] = tested on: Bcap37; assay: Growth inhibition of human Bcap37 cells at 10 uM after 72 hrs by MTT assay; type: functional; settings: Bcap37, 72 h, read-out: GI
[11] = tested on: MGC-803; assay: Induction of apoptosis in human MGC803 cells assessed as DNA fragmentation at 2.5 to 10 uM after 24 hrs by TUNEL assay; type: functional, cell-based
[12] = tested on: MGC-803; assay: Induction of apoptosis in human MGC803 cells assessed as early and late apoptotic level at 10 uM after 12 hrs by annexinV/FITC-PI staining-based flow cytometric analysis; type: functional
[13] = tested on: MGC-803; assay: Induction of apoptosis in human MGC803 cells assessed as cell budding at 5 uM up to 48 hrs by acridine orange/ethidium bromide staining; type: functional, cell-based
[14] = tested on: MGC-803; assay: Induction of apoptosis in human MGC803 cells at 10 uM by annexinV/FITC-PI staining-based flow cytometric analysis; type: functional, cell-based; settings: TDE = time-dependent effect
[15] = Growth inhibition of mouse NIH/3T3 cells at 10 uM after 72 hrs by MTT assay; type: cell-based, NIH3T3; settings: read-out: GI
[16] = tested on: MGC-803; assay: Induction of apoptosis in human MGC803 cells assessed as pyknosis at 5 uM after 12 to 48 hrs by acridine orange/ethidium bromide staining; type: functional, cell-based
[17] = tested on: MGC-803; assay: Induction of apoptosis in human MGC803 cells assessed as late apoptotic cells at 5 uM after 48 hrs by acridine orange/ethidium bromide staining; type: functional, cell-based
[18] = tested on: MGC-803; assay: Induction of apoptosis in human MGC803 cells at 10 uM after 48 hrs by acridine orange/ethidium bromide staining; type: functional, cell-based
[19] = tested on: MGC-803; assay: Induction of apoptosis in human MGC803 cells assessed as DNA fragmentation at 10 uM after 24 hrs by TUNEL assay; type: functional, cell-based
[20] = tested on: MGC-803; assay: Induction of apoptosis in human MGC803 cells assessed as condensed chromatin at 10 uM after 48 hrs by Hoechst 33258 staining; type: functional, cell-based
[21] = tested on: MGC-803; assay: Induction of apoptosis in human MGC803 cells assessed as membrane blebbing at 10 uM after 48 hrs by acridine orange/ethidium bromide staining; type: functional, cell-based
[22] = tested on: MGC-803; assay: Induction of apoptosis in human MGC803 cells assessed as cell budding at 10 uM after 48 hrs by acridine orange/ethidium bromide staining; type: functional, cell-based
[23] = tested on: MGC-803; assay: Induction of apoptosis in human MGC803 cells assessed as pyknosis at 10 uM after 48 hrs by acridine orange/ethidium bromide staining; type: functional, cell-based

Row | SMILES | IC50 ([5]; read-out: IC50) | inhibition of growth at 10 µM [8] | IC50 [9] | inhibition of growth at 10 µM [10] | inhibition at 72 h, 10 µM [15] | other results
1 | C[C@H]1[C@H](C)CC[C@]2(C(=O)OCCN3CCN(C(=O)c4c(Cl)cccc4Cl)CC3)CC[C@]3(C)C(=CC[C@@H]4[C@@]5(C)CC[C@H](O)C(C)(C)[C@@H]5CC[C@]43C)[C@H]12 | 9.24 µM | 95.6% | 2.5 µM | 76% | 32.1% | Activity [1]: Active; Activity [2]: Active; Activity [3]: Active; Activity [4]: Active; Activity [6]: 28.01%; Activity [7]: 33.35%; Activity [11]: Active; Activity [12]: 23.57%; Activity [13]: Active; Activity [14]: tde; Activity [16]: Active; Activity [17]: Active
2 | CC[C@@]1(O)C(=O)OCc2c1cc1n(c2=O)Cc2cc3cc(O)ccc3nc2-1 [HYDROXYCAMPTOTHECIN] | > 20 µM | 29.1% | > 20 µM | 28.1% | 9.3% | Activity [18]: Active; Activity [6]: 18.66%; Activity [7]: 24.95%; Activity [19]: Active; Activity [12]: 17.37%; Activity [20]: Active
3 | C[C@H]1[C@H](C)CC[C@]2(C(=O)OCCN3CCN(C(=O)c4ccccc4C(F)(F)F)CC3)CC[C@]3(C)C(=CC[C@@H]4[C@@]5(C)CC[C@H](O)C(C)(C)[C@@H]5CC[C@]43C)[C@H]12 | 10.9 µM | 71.2% | 8.72 µM | 38.6% | 16.2% | 
4 | C[C@H]1[C@H](C)CC[C@]2(C(=O)OCCN3CCN(C(=O)c4ccc(F)cc4)CC3)CC[C@]3(C)C(=CC[C@@H]4[C@@]5(C)CC[C@H](O)C(C)(C)[C@@H]5CC[C@]43C)[C@H]12 | 5.12 µM | 71.8% | 7.29 µM | 83.7% | 71.3% | 
5 | COc1cccc2c1C(=O)c1c(O)c3c(c(O)c1C2=O)C[C@@](O)(C(=O)CO)C[C@@H]3O[C@H]1C[C@H](N)[C@H](O)[C@H](C)O1 [DOXORUBICIN] |  | 92.1% | 0.7 µM | 92.1% | 99.2% | IC50 [5]: 1.28 µM
6 | C[C@H]1[C@H](C)CC[C@]2(C(=O)O)CC[C@]3(C)C(=CC[C@@H]4[C@@]5(C)CC[C@H](O)C(C)(C)[C@@H]5CC[C@]43C)[C@H]12 [URSOLIC ACID] | 28.7 µM | 28.9% | 24.3 µM | 11.9% | 14% | Activity [21]: Active; Activity [19]: Active; Activity [22]: Active; Activity [20]: Active; Activity [23]: Active
7 | C[C@H]1[C@H](C)CC[C@]2(C(=O)OCCN3CCN(C(=O)c4ccccc4Cl)CC3)CC[C@]3(C)C(=CC[C@@H]4[C@@]5(C)CC[C@H](O)C(C)(C)[C@@H]5CC[C@]43C)[C@H]12 | 7.26 µM | 93% | 4.66 µM | 69.1% | 29.8% | 

Reference: ChEMBL document CHEMBL2150939, “Synthesis and cytotoxicity of novel ursolic acid derivatives containing an acyl piperazine moiety” (Eur J Med Chem, 2012)
